Measurements taken from PubChem BioAssay AID2060892 (Molecular Pharmacology Branch, DTP, NCI, 2025).

System: HOP-62 complex spheroids with HUVEC/MSC, viability
Test: Anticancer human tumor HOP-62 cell line growth inhibition [RAS];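 further: spheroids exposed to agents for seven days before readout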;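 on viability, T/C: 100% = DMSO vehicle control viability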
Settings: for IC50: curve of first compound; for viability, T/C: stronger effect = lower value
Source text: RAS pathway inhibitors in Combinations in Complex Spheroids
A high-throughput screen of multi-cell type tumor spheroids was designed to identify active combinations of RAS pathway inhibitors and targeted small molecules. Complex spheroids include a stromal component modeled by human endothelial cells (HUVEC) and fibroblasts modeled by human mesenchymal stem cells (MSCs). The concentration ranges selected for each drug and investigational agent were based upon clinically achievable concentrations if the clinical Cmax of the agent was known.
Compounds. The drugs and investigational agents: abemaciclib (NSC768073), cobimetinib (NSC768068), divarasib (GDC6063, NSC841802), docetaxel (NSC628503), GDC-1971 (RLY-1971, NSC841576), gemcitabine (NSC613327), inavolisib (NSC800729), ipatasertib (NSC767898), KB-0742 (NSC834161), MRTX-1133 (NSC836407), osimertinib (NSC779217), RMC-4630 (NSC839698), RMC-6236 (NSC851965), RMC-6291 (NSC852671), Ro-3306 (NSC812927), sapanisertib (NSC764658), SN-38 (NSC673596), staurosporine (NSC755774), SY5609 (NSC837396), and tovorafenib (DAY101, NSC766906), were obtained from the National Cancer Institute (NCI) Developmental Therapeutics Program Chemical Repository. The FDA-approved anticancer drug set is available from the NCI Developmental Therapeutics Program. […] The stock solutions were prepared in dimethyl sulfoxide (DMSO, Sigma-Aldrich, St. Louis, MO, cat. D2650) at 800-fold the tested concentration and stored at -70 degrees C prior to their use. All drugs and investigational agents were tested over a range starting from a high concentration at or near the clinical Cmax and decreasing in half-log increments. If the clinical Cmax for an agent had not been determined, the highest concentration tested was 10 microM.
Cell Culture. All cells were maintained in an incubator at 37 degrees C and 5% CO2 with 95% humidity. The PDC lines were cultured according to standard operating procedures established by the NCI PDMR. All PDCs were thawed and cultured in Matrigel-coated flasks prepared with a working solution of 1X Ham's F-12 nutrient mix, without supplementation (Invitrogen, Waltham, MA, cat. 11765054), 100 U/mL penicillin-streptomycin (Invitrogen, cat. 15140122), and 2.5% Matrigel (Corning Inc., Corning, NY, cat. 354248) for the first three passages. The 362531-283-R-J2-PDC and 782815-120-R-J1-PDC lines were cultured in 6C/Colon 1B media, which includes advanced DMEM/F-12 (Thermo Fisher Scientific, cat. 12634028), 10 mM HEPES (Thermo Fisher Scientific, cat. 15630080), 1X GlutaMAX supplement (Thermo Fisher Scientific, cat. 35050061), 0.1 mg/mL primocin (InvivoGen, San Diego, CA, cat. ant-pm-2), 10% defined fetal bovine serum, heat inactivated (HyClone Laboratories Inc., Logan, UT, cat. SH30070.03HI), 50% L-WRN conditioned media (ATCC, cat. CRL-3276), 1.25 mM N-Acetyl-L-cysteine (Sigma-Aldrich, cat. A9165), 10 mM nicotinamide (Sigma-Aldrich, cat. N0636), 1X B-27 supplement (Thermo Fisher Scientific, cat. 17504044), 1X N-2 supplement (Thermo Fisher Scientific, cat. 17502048), 50 ng/mL human EGF (Thermo Fisher Scientific, cat. PHG0311), and 10 microM Y-27632 dihydrochloride (Tocris Bioscience, cat. 1254). The K12877-001-R-J1-PDC line was cultured in 6I media, which includes all 6C/Colon 1B media plus 10 ng/mL human FGF-10 (PeproTech, cat. 100-26), 1 ng/mL human FGF-2 (PeproTech, cat. 100-18B), 1 µM prostaglandin E2 (Tocris Bioscience, cat. 2296), […] hydrocortisone (Sigma-Aldrich, cat. H4001), and […] bovine insulin (Sigma-Aldrich, cat. I6634). The K86415-001-R-J1-PDC line was cultured in 6D media, which includes all 6C/Colon 1B media components minus the L-WRN conditioned media. The 485176-168-R4-J1-PDC was cultured in PANC media, which includes all 6C/Colon 1B media plus 100 ng/mL human FGF-10 (PeproTech, cat. 100-26), 500 nM SB-431542 (Selleckchem, cat. S1067), and 10 nM gastrin (Tocris Bioscience, cat. 3006). […]

**Q.** With NC1c2ccccc2OC12CCN(c1cnc3c(N4CCCc5ncccc54)n[nH]c3n1)CC2 (configuration not stated) + C#Cc1c(F)ccc2cc(O)cc(-c3ncc4c(N5CC6CCC(C5)N6)nc(OCC56CCCN5CC(F)C6)nc4c3F)c12 as the compound, how does the IC50 (second compound 0.0316 µM) read?
**A.** 1820 nM

**Q.** What about the IC50 (second compound 0.1 µM) of the same compound?
**A.** 772 nM

**Q.** What about the IC50 (second compound 0.316 µM) of the same compound?
**A.** 330 nM

**Q.** What about the IC50 (second compound 1 µM) of the same compound?
**A.** 71.1 nM

**Q.** And the IC50 (second compound 3.16 µM)?
**A.** < 31.6 nM

**Q.** What about the IC50 (second compound 10 µM) of the same compound?
**A.** < 31.6 nM

**Q.** And the viability, T/C (second compound 0.0316 µM, first compound 0.0316 µM)?
**A.** 103%

**Q.** And the viability, T/C (second compound 0.0316 µM, first compound 0.1 µM)?
**A.** 80.8%

**Q.** And the viability, T/C (second compound 0.0316 µM, first compound 0.316 µM)?
**A.** 73.7%

**Q.** And the viability, T/C (second compound 0.0316 µM, first compound 1 µM)?
**A.** 57.2%

**Q.** And the viability, T/C (second compound 0.0316 µM, first compound 3.16 µM)?
**A.** 45.7%

**Q.** And the viability, T/C (second compound 0.0316 µM, first compound 10 µM)?
**A.** 26.6%

**Q.** And the viability, T/C (second compound 0.1 µM, first compound 0.0316 µM)?
**A.** 92.4%

**Q.** What about the viability, T/C (second compound 0.1 µM, first compound 0.1 µM) of the same compound?
**A.** 91.4%

**Q.** What about the viability, T/C (second compound 0.1 µM, first compound 0.316 µM) of the same compound?
**A.** 61.5%

**Q.** And the viability, T/C (second compound 0.1 µM, first compound 1 µM)?
**A.** 49.9%

**Q.** And the viability, T/C (second compound 0.1 µM, first compound 3.16 µM)?
**A.** 28.6%

**Q.** What about the viability, T/C (second compound 0.1 µM, first compound 10 µM) of the same compound?
**A.** 27.1%

**Q.** What about the viability, T/C (second compound 0.316 µM, first compound 0.0316 µM) of the same compound?
**A.** 90.9%

**Q.** And the viability, T/C (second compound 0.316 µM, first compound 0.1 µM)?
**A.** 76.7%

**Q.** What about the viability, T/C (second compound 0.316 µM, first compound 0.316 µM) of the same compound?
**A.** 49.8%

**Q.** What about the viability, T/C (second compound 0.316 µM, first compound 1 µM) of the same compound?
**A.** 29.9%

**Q.** And the viability, T/C (second compound 0.316 µM, first compound 3.16 µM)?
**A.** 22.3%

**Q.** What about the viability, T/C (second compound 0.316 µM, first compound 10 µM) of the same compound?
**A.** 15.1%

**Q.** And the viability, T/C (second compound 1 µM, first compound 0.0316 µM)?
**A.** 60.2%

**Q.** What about the viability, T/C (second compound 1 µM, first compound 0.1 µM) of the same compound?
**A.** 45.7%

**Q.** And the viability, T/C (second compound 1 µM, first compound 0.316 µM)?
**A.** 29.7%

**Q.** And the viability, T/C (second compound 1 µM, first compound 1 µM)?
**A.** 19.3%

**Q.** What about the viability, T/C (second compound 1 µM, first compound 3.16 µM) of the same compound?
**A.** 13.8%

**Q.** And the viability, T/C (second compound 1 µM, first compound 10 µM)?
**A.** 12.7%

**Q.** What about the viability, T/C (second compound 3.16 µM, first compound 0.0316 µM) of the same compound?
**A.** 40.9%

**Q.** What about the viability, T/C (second compound 3.16 µM, first compound 0.1 µM) of the same compound?
**A.** 20.9%

**Q.** And the viability, T/C (second compound 3.16 µM, first compound 0.316 µM)?
**A.** 15.6%

**Q.** What about the viability, T/C (second compound 3.16 µM, first compound 1 µM) of the same compound?
**A.** 11.8%

**Q.** What about the viability, T/C (second compound 3.16 µM, first compound 3.16 µM) of the same compound?
**A.** 10.8%

**Q.** What about the viability, T/C (second compound 3.16 µM, first compound 10 µM) of the same compound?
**A.** 12.2%

**Q.** And the viability, T/C (second compound 10 µM, first compound 0.0316 µM)?
**A.** 16.2%

**Q.** What about the viability, T/C (second compound 10 µM, first compound 0.1 µM) of the same compound?
**A.** 11%

**Q.** What about the viability, T/C (second compound 10 µM, first compound 0.316 µM) of the same compound?
**A.** 7.6%

**Q.** What about the viability, T/C (second compound 10 µM, first compound 1 µM) of the same compound?
**A.** 8.99%

**Q.** And the viability, T/C (second compound 10 µM, first compound 3.16 µM)?
**A.** 8.52%

**Q.** And the viability, T/C (second compound 10 µM, first compound 10 µM)?
**A.** 17.5%
